Measured values reported in patent publication US20230382925A1, “MODULATORS OF CYSTIC FIBROSIS TRANSMEMBRANE CONDUCTANCE REGULATOR” (VERTEX PHARMACEUTICALS INCORPORATED, priority 2020, published 2023).
“And” between values parts separate entries of the source, which are not always exact repeats. Equal values may be shown once. Read-outs that look alike come from different tables or passages of the source. Blank lines part the entries; values can stand above or below the molecule they belong to.

Key:
[1] = amide bond, 13-membered ring
CFTR [2] = biological target: T1, CFTR (Homo sapiens, UniProt P13569); assay: Membrane Potential Dye, Enteroid Assay A; type: cell-based; conditions: for EC50: read-out: Ent. A EC50
Outline: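 Primary human intestinal enteroid cells exposed to compound for 18–24 hours at 37 °C, then loaded 25 min with methyl oxonol membrane potential dye plus CaCC inhibitors. Chloride transport triggered in chloride-free buffer with 10 μM forskolin, 100 μM IBMX and 300 nM Compound III, fluorescence read 15 min; % Activity relative to a triple-combination corrector/potentiator control.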

[3] = amide bond, 13-membered ring, DMF
CFTR [4] = biological target: T1, CFTR; assay: Membrane Potential Dye, Enteroid Assay B; type: cell-based; conditions: for EC50: read-out: Ent. B EC50
Outline: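 Human intestinal enteroid cells exposed to compound 18-24 h at 37 °C, then loaded with methyl oxonol membrane-potential dye plus CaCC blockers. Chloride transport triggered in chloride-free buffer with 10 μM forskolin, 100 μM IBMX, 300 nM Compound III; fluorescence read 15 min, expressed as % of triple-corrector/potentiator combination control.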

T1 sequence (P13569 with tags, fused parts or gaps DEL508-508): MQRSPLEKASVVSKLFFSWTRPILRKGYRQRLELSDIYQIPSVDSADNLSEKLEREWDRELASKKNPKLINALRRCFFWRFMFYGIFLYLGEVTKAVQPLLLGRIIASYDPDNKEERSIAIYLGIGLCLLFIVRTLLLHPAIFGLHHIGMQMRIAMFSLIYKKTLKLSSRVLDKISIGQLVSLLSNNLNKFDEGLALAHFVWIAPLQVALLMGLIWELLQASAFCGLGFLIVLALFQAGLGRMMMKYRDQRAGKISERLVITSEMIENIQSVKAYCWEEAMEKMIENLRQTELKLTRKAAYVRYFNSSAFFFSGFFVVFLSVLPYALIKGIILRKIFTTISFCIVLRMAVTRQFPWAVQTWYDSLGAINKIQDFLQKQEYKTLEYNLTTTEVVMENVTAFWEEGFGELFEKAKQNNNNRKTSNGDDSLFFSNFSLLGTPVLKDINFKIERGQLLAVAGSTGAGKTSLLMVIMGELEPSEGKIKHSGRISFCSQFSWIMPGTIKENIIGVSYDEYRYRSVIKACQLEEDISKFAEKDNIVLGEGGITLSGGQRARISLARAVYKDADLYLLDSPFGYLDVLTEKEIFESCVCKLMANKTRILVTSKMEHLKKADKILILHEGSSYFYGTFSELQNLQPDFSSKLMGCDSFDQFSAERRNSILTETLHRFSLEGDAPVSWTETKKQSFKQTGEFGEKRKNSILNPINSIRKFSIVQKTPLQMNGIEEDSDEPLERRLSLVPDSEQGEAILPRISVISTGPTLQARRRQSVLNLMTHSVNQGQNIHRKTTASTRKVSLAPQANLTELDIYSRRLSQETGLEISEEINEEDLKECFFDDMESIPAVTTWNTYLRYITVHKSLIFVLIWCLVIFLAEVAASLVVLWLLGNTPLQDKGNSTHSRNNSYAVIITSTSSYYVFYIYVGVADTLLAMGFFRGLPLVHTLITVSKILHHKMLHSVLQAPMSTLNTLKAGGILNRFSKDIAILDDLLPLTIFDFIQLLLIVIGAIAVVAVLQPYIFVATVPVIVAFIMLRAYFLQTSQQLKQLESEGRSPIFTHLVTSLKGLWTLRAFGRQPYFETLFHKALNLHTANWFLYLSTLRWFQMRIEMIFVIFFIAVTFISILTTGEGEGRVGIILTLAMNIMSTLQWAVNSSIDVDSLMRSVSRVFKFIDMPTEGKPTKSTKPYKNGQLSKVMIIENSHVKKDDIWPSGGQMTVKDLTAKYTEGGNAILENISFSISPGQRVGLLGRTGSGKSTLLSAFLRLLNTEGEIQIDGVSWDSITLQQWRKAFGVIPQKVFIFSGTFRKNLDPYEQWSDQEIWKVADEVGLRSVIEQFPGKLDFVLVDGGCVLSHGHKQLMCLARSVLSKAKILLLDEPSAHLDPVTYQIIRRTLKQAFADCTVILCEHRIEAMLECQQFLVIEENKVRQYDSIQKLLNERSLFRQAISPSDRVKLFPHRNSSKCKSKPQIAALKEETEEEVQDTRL

Compound: CC(C)C[C@@H]1COc2cc(Cl)nc(n2)NS(=O)(=O)c2cccc(c2)C(=O)N1C1CC2(CC2)C1
ring closure, isolated yield ([1]; from CC(C)C[C@H](COc1cc(Cl)nc(NS(=O)(=O)c2cccc(C(=O)O)c2)n1)NC1CC2(CC2)C1, HATU/DIEA, DMF, 16.5 mM, 17.0 h): 58%

Compound: CC(C)C[C@@H]1COc2cc(Cl)nc(n2)NS(=O)(=O)c2cccc(c2)C(=O)N1C1CC2(CCN(C(=O)OC(C)(C)C)CC2)C1
ring closure, isolated yield ([1]; from CC(C)C[C@H](COc1cc(Cl)nc(NS(=O)(=O)c2cccc(C(=O)O)c2)n1)NC1CC2(CCN(C(=O)OC(C)(C)C)CC2)C1, HATU/TEA, DMF, 154.9 mM, 25.0 °C, 16.0 h): 41%

Compound: COC(=O)C1CC(N2C(=O)c3cccc(c3)S(=O)(=O)Nc3nc(cc(-c4c(C)cccc4C)n3)OC[C@H]2CC(C)(C)C)C1 (some centres unmarked)
ring closure, isolated yield ([1]; from COC(=O)C1CC(N[C@@H](COc2cc(-c3c(C)cccc3C)nc(NS(=O)(=O)c3cccc(C(=O)O)c3)n2)CC(C)(C)C)C1, COMU/DIEA, DMF, 25.2 mM, 25.0 °C, 21.0 h): 25% and 34%

Compound: COC(=O)C1CC2(C1)CC(N1C(=O)c3cccc(c3)S(=O)(=O)Nc3nc(cc(-c4c(C)cccc4C)n3)OC[C@H]1CC(C)(C)C)C2 (some centres unmarked)
ring closure, isolated yield ([1]; from COC(=O)C1CC2(CC(N[C@@H](COc3cc(-c4c(C)cccc4C)nc(NS(=O)(=O)c4cccc(C(=O)O)c4)n3)CC(C)(C)C)C2)C1, COMU/DIEA, DMF, 16.0 h, 2 steps): 51%

Compound: COC(=O)C1CC2(C1)CC(N1C(=O)c3cccc(c3)S(=O)(=O)Nc3nc(cc(-c4c(C)cccc4C)n3)OC[C@H]1CCC(C)C)C2 (some centres unmarked)
ring closure, isolated yield ([1]; HATU/DIEA, DMF, 25.0 °C, 2 steps): 20%

Compound: COC(=O)CC1CC(N2C(=O)c3cccc(c3)S(=O)(=O)Nc3nc(cc(-c4c(C)cccc4C)n3)OC[C@H]2CC(C)(C)C)C1 (some centres unmarked)
ring closure, isolated yield ([1]; from COC(=O)CC1CC(N[C@@H](COc2cc(-c3c(C)cccc3C)nc(NS(=O)(=O)c3cccc(C(=O)O)c3)n2)CC(C)(C)C)C1, COMU/DIEA, DMF, 47.0 mM, 18.0 h): 79%

Compound: Cc1cccc(C)c1-c1cc2nc(n1)NS(=O)(=O)c1cccc(c1)C(=O)N(C1CC(C(=O)OC(C)C)(C(=O)OC(C)C)C1)[C@H](CC(C)(C)C)CO2
ring closure, isolated yield ([1]; from Cc1cccc(C)c1-c1cc(OC[C@@H](CC(C)(C)C)NC2CC(C(=O)OC(C)C)(C(=O)OC(C)C)C2)nc(NS(=O)(=O)c2cccc(C(=O)O)c2)n1, COMU/DIEA, DMF, 18.6 mM, 25.0 °C, 21.0 h): 20%

Compound: Cc1cccc(C)c1-c1cc2nc(n1)NS(=O)(=O)c1cccc(c1)C(=O)N(C1CC(NC(=O)OC(C)(C)C)C1)[C@H](CC1(C(F)(F)F)CC1)CO2 (some centres unmarked)
ring closure, isolated yield ([1]; from Cc1cccc(C)c1-c1cc(OC[C@@H](CC2(C(F)(F)F)CC2)NC2CC(NC(=O)OC(C)(C)C)C2)nc(NS(=O)(=O)c2cccc(C(=O)O)c2)n1, HATU/DIPEA, DMF, 28.6 mM, 16.0 h): 61%

Compound: Cc1cccc(C)c1-c1cc2nc(n1)NS(=O)(=O)c1cccc(c1)C(=O)N(C1CC(OCc3ccccc3)C1)[C@H](CC(C)(C)C)CO2 (some centres unmarked)
ring closure, isolated yield ([1]; from Cc1cccc(C)c1-c1cc(OC[C@@H](CC(C)(C)C)NC2CC(OCc3ccccc3)C2)nc(NS(=O)(=O)c2cccc(C(=O)O)c2)n1, COMU/DIEA, DMF, 65.1 mM, 25.0 °C, 16.0 h): 82%

Compound: Cc1cccc(C)c1-c1cc2nc(n1)NS(=O)(=O)c1cccc(c1)C(=O)N(C1CC(OCc3ccccc3)C1)[C@H](CC(C)C)CO2 (some centres unmarked)
ring closure, isolated yield ([1]; from Cc1cccc(C)c1-c1cc(OC[C@@H](CC(C)C)NC2CC(OCc3ccccc3)C2)nc(NS(=O)(=O)c2cccc(C(=O)O)c2)n1, HATU/DIEA, DMF, 77.3 mM, 15.0 h): 85%

Compound: Cc1cccc(C)c1-c1cc2nc(n1)NS(=O)(=O)c1cccc(c1)C(=O)N(C1CC3(C1)CC1(C3)OCCO1)[C@H](CC(C)(C)C)CO2
ring closure, isolated yield ([1]; from Cc1cccc(C)c1-c1cc(OC[C@@H](CC(C)(C)C)NC2CC3(C2)CC2(C3)OCCO2)nc(NS(=O)(=O)c2cccc(C(=O)O)c2)n1, COMU/DIEA, DMF, 71.6 mM, 16.0 h): 76%

Compound: Cc1cccc(C)c1-c1cc2nc(n1)NS(=O)(=O)c1cccc(c1)C(=O)N(C1CC3(C1)CN(C(=O)OC(C)(C)C)C3)[C@H](CC1(C(F)(F)F)CC1)CO2
ring closure, isolated yield ([1]; from Cc1cccc(C)c1-c1cc(OC[C@@H](CC2(C(F)(F)F)CC2)NC2CC3(C2)CN(C(=O)OC(C)(C)C)C3)nc(NS(=O)(=O)c2cccc(C(=O)O)c2)n1, HATU/TEA, DMF, 35.1 mM, 22.0 h): 49%

Compound: Cc1cccc(C)c1-c1cc2nc(n1)NS(=O)(=O)c1cccc(c1)C(=O)N(C1CC3(CC(NC(=O)OC(C)(C)C)C3)C1)[C@H](CC1(C(F)(F)F)CC1)CO2 (some centres unmarked)
ring closure, isolated yield ([1]; from Cc1cccc(C)c1-c1cc(OC[C@@H](CC2(C(F)(F)F)CC2)NC2CC3(CC(NC(=O)OC(C)(C)C)C3)C2)nc(NS(=O)(=O)c2cccc(C(=O)O)c2)n1, HATU/DIEA, DMF, 99.2 mM, 18.0 h): 74%

Compound: Cc1cccc(C)c1-c1cc2nc(n1)NS(=O)(=O)c1cccc(c1)C(=O)N(C1CC3(CCN(C(=O)OC(C)(C)C)C3)C1)[C@H](CC(C)C)CO2 (some centres unmarked)
ring closure, isolated yield ([1]; from Cc1cccc(C)c1-c1cc(OC[C@@H](CC(C)C)NC2CC3(CCN(C(=O)OC(C)(C)C)C3)C2)nc(NS(=O)(=O)c2cccc(C(=O)O)c2)n1, HATU/DIEA, DMF, 25.0 °C, 3.0 h, 2 steps): 67%

Compound: Cc1cccc(C)c1-c1cc2nc(n1)NS(=O)(=O)c1cccc(c1)C(=O)N(C1CC3(CCN(C(=O)OC(C)(C)C)CC3)C1)C[C@@H](C)O2
ring closure, isolated yield ([1]; from Cc1cccc(C)c1-c1cc(O[C@H](C)CNC2CC3(CCN(C(=O)OC(C)(C)C)CC3)C2)nc(NS(=O)(=O)c2cccc(C(=O)O)c2)n1, HATU/DIEA, DMF, 8.8 mM, 6.0 h, 2 steps): 28%

Compound: Cc1cccc(C)c1-c1cc2nc(n1)NS(=O)(=O)c1cccc(c1)C(=O)N(C1CC3(CCN(C(=O)OC(C)(C)C)CC3)C1)[C@@H](CC(C)C)CO2
ring closure, isolated yield ([1]; from Cc1cccc(C)c1-c1cc(OC[C@H](CC(C)C)NC2CC3(CCN(C(=O)OC(C)(C)C)CC3)C2)nc(NS(=O)(=O)c2cccc(C(=O)O)c2)n1, HATU/DIEA, DMF/THF, 16.0 h, 2 steps): 18%

Compound: Cc1cccc(C)c1-c1cc2nc(n1)NS(=O)(=O)c1cccc(c1)C(=O)N(C1CC3(COC(=O)N3)C1)[C@H](CC(C)(C)C)CO2 (some centres unmarked)
ring closure, isolated yield ([1]; from Cc1cccc(C)c1-c1cc(OC[C@@H](CC(C)(C)C)NC2CC3(COC(=O)N3)C2)nc(NS(=O)(=O)c2cccc(C(=O)O)c2)n1, COMU/DIEA, DMF, 13.0 mM, 25.0 °C, 3.0 h, 2 steps): 8% and 3%

Compound: Cc1cccc(C)c1-c1cc2nc(n1)NS(=O)(=O)c1cccc(c1)C(=O)N(C1CCN(C(=O)OC(C)(C)C)C1)[C@H](CC(C)C)CO2 (some centres unmarked)
ring closure, isolated yield ([1]; from Cc1cccc(C)c1-c1cc(OC[C@@H](CC(C)C)NC2CCN(C(=O)OC(C)(C)C)C2)nc(NS(=O)(=O)c2cccc(C(=O)O)c2)n1, COMU/DIPEA, DMF, 10.0 mM, 16.0 h, 2 steps): 28%

Compound: Cc1cccc(C)c1-c1cc2nc(n1)NS(=O)(=O)c1cccc(c1)C(=O)N(C1[C@@H]3C[C@H]1CN(C(=O)OC(C)(C)C)C3)[C@H](CC(C)(C)C)CO2 (some centres unmarked)
ring closure, isolated yield ([1]; from Cc1cccc(C)c1-c1cc(OC[C@@H](CC(C)(C)C)NC2C3CC2CN(C(=O)OC(C)(C)C)C3)nc(NS(=O)(=O)c2cccc(C(=O)O)c2)n1, COMU/DIEA, DMF, 8.4 mM, 25.0 °C, 24.0 h): 17%

Ent. A Max Activity (%) (CFTR [2]): +++ (+++ is >60%)
EC50 (CFTR [2]): < 1000 nM
Ent. B Max Activity (%) (CFTR [4]): +++ (+++ is >60%)
EC50 (CFTR [4]): < 1000 nM
Compound: Cc1cccc(C)c1-c1cc2nc(n1)NS(=O)(=O)c1cccc(c1)C(=O)N(C1CC3(CCN(CC(F)(F)F)CC3)C1)[C@H](CC(C)C)CO2 [Compound 18, (11R)-6-(2,6-dimethylphenyl)-11-isobutyl-2,2-dioxo-12-[7-(2,2,2-trifluoroethyl)-7-azaspiro[3.5]nonan-2-yl]-9-oxa-2λ^6-thia-3,5,12,19-tetrazatricyclo[12.3.1.14,8]nonadeca-1(18),4(19),5,7,14,16-hexaen-13-one]
ring closure, yield after HPLC ([3]; from Cc1cccc(C)c1-c1cc(OC[C@@H](CC(C)C)NC2CC3(CCN(CC(F)(F)F)CC3)C2)nc(NS(=O)(=O)c2cccc(C(=O)O)c2)n1, HATU/DIEA, 25.0 °C, 2.0 h, 2 steps): 17%

Ent. A Max Activity (%) (CFTR [2]): ++ (++ is 30-60%)
EC50 (CFTR [2]): 1000 to 3000 nM
Compound: Cc1cccc(C)c1-c1cc2nc(n1)NS(=O)(=O)c1cccc(c1)C(=O)N(C1CC3(CC3)C1)[C@H](C)CO2 [Compound 126, (11R)-6-(2,6-dimethylphenyl)-11-methyl-12-{spiro[2.3]hexan-5-yl}-9-oxa-2λ^6-thia-3,5,12,19-tetraazatricyclo[12.3.1.14,8]nonadeca-1(17),4(19),5,7,14(18),15-hexaene-2,2,13-trione]
ring closure, yield after HPLC ([3]; from Cc1cccc(C)c1-c1cc(OC[C@@H](C)NC2CC3(CC3)C2)nc(NS(=O)(=O)c2cccc(C(=O)O)c2)n1, HATU/TEA, 20.9 mM, 96.0 h): 47%

Ent. A Max Activity (%) (CFTR [2]): +++ (+++ is >60%)
EC50 (CFTR [2]): < 1000 nM
Ent. B Max Activity (%) (CFTR [4]): +++ (+++ is >60%)
EC50 (CFTR [4]): < 1000 nM
Compound: Cc1cccc(C)c1-c1cc2nc(n1)NS(=O)(=O)c1cccc(c1)C(=O)N(C1CC3(CC3)C1)[C@H](CC(C)(C)C)CO2 [Compound 182, (11R)-6-(2,6-Dimethylphenyl)-11-(2,2-dimethylpropyl)-2,2-dioxo-12-spiro[2.3]hexan-5-yl-9-oxa-2λ^6-thia-3,5,12,19-tetrazatricyclo[12.3.1.14,8]nonadeca-1(18),4(19),5,7,14,16-hexaen-13-one]
ring closure, yield after HPLC ([3]; from Cc1cccc(C)c1-c1cc(OC[C@@H](CC(C)(C)C)NC2CC3(CC3)C2)nc(NS(=O)(=O)c2cccc(C(=O)O)c2)n1, HATU/DIEA, 26.5 mM, 6.0 h): 54%
